Experiments:
T7 RNA polymerase = T7 RNA polymerase (Escherichia phage T7, UniProt P00573); assay: Capping rate of mRNA transcription initiated by cap analogs (LC-MS); assay type: biochemical; details: for Capping rate: LC-MS of mRNA 5′ fragment
Procedure: During the experiment, the volume of materials required for the system was first calculated, and then sample addition was conducted. The system was first added with sterile enzyme-free water, followed by the sequential addition of 10× buffer, NTPs, and cap analogs, mixed well, and gently centrifuged. Nuclease inhibitors, inorganic pyrophosphatase, T7RNA polymerase, and linearized DNA templates were then added thereto. The system was mixed well, gently centrifuged, and incubated at 37° C. After 2 hours of incubation, the system was added with 1 U of DNase I and incubated at 37° C. for another 30 minutes. The mRNA precipitate was then washed with 75% ethanol, and after the ethanol was briefly evaporated to dryness, the mRNA was redissolved in sterile enzyme-free water. • (3) The transcription product was purified, and the in vitro transcription yield of mRNA was recorded. • (4) The obtained mRNA was subjected to an annealing reaction with a probe.
The annealing reaction was performed in a PCR instrument: 95° C. for 5 minutes; 65° C. for 2 minutes; 55° C. for 2 minutes; 40° C. for 2 minutes; 22° C. for 2 minutes. • (5) Magnetic bead pretreatment and probe binding: 100 μL of magnetic beads was placed on a magnetic frame for pretreatment. The magnetic bead solution was added with 120 μL of sample and incubated at room temperature for 30 minutes with slow mixing. • (6) mRNA splicing and obtaining the mRNA 5′ single-strand sequence bound to the probe
The mixture was added with 20 μL of RNase H (5 U/μL) and incubated at 37° C. for 3 hours with mixing every half hour. After incubation, the magnetic beads were washed and then added with 100 μL of 75% methanol heated to 80° C. The mixture was heated to 80° C. on a heating plate, held for 3 minutes, then placed on a magnetic frame to aspirate the supernatant, and dried at room temperature for 45 minutes to a volume of 10 μL using a centrifugal evaporator. The sample was then resuspended in 50 μL of 100 μM EDTA/1% MeOH and ready for LC-MS analysis to determine the capping of RNA in the transcription reaction. Since there is a significant difference in molecular weight between capped and uncapped bases, the capping rate of mRNA transcription initiated by different cap analogs can be determined based on the difference in molecular mass.

DCP2 enzyme = molecular target: T1, DCP2 enzyme (Schizosaccharomyces pombe, UniProt O13828); assay: Decapping enzyme stability test; assay type: biochemical; details: for Decapping rate (%) of DCP2 enzyme: 50 U mRNA decapping enzyme, 37° C., 45 minutes
T1 construct: purchased New England Biolabs
T1 sequence (O13828 1-243 limits assumed): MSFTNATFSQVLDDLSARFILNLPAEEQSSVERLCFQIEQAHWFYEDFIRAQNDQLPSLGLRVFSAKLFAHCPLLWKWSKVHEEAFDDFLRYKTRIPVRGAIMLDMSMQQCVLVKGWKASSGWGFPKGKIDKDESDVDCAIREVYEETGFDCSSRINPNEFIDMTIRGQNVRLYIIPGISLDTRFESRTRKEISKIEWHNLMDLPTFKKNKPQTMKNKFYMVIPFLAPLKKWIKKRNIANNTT
T1 sequence (Q9P805 1-127 partner): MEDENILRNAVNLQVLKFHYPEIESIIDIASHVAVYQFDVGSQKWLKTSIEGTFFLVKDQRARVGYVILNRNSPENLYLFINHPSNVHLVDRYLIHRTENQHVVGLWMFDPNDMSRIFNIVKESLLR
T1 sequence (Q10108 155-180 partner limits assumed): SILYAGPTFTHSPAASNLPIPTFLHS
Method in brief: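 PAGE-purified RNA ([…]) incubated with 50 U mRNA decapping enzyme in 1×MDE buffer at 37° C. for 45 minutes. Products resolved by PAGE, SYBR Green II stained; decapping rate derived from capped-to-decapped band intensity ratio.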

BALB/C mice = assay: In vivo imaging of Fluc-mRNA LNP expression in mice
Procedure: The LNP preparation containing 5 μg of cap analog-transcribed Fluc-mRNA was intramuscularly injected into female BALB/C mice aged 4 to 6 weeks and weighing 17 to 19 g. At specific time points after administration (6 hours, 12 hours, 24 hours, 48 hours, 96 hours, and 168 hours), the mice were intraperitoneally injected with fluorescence imaging substrate. The mice were then allowed to move freely for 5 minutes, followed by detection of the total radiation intensity of the protein expressed by LNP-carrying mRNA in the mice using an IVIS Spectrum small-animal in vivo imaging system (corresponding to the amount of protein expression).
In the in vivo imaging experiments in mice, the multiple of the total radiation intensity for each group of mice relative to the m6A group is shown in Table 8 (where the total radiation intensity is represented as the given value×10^8 p/s).

[1] = 6 h, 5 μg Fluc-mRNA LNP intramuscular, mice
[2] = 12 h, 5 μg Fluc-mRNA LNP intramuscular, mice
[3] = 24 h, 5 μg Fluc-mRNA LNP intramuscular, mice
[4] = 48 h, 5 μg Fluc-mRNA LNP intramuscular, mice
[5] = 96 h, 5 μg Fluc-mRNA LNP intramuscular, mice
[6] = 168 h, 5 μg Fluc-mRNA LNP intramuscular, mice

T7 RNA polymerase, sequence (P00573 whole entry, the tested form may be a part): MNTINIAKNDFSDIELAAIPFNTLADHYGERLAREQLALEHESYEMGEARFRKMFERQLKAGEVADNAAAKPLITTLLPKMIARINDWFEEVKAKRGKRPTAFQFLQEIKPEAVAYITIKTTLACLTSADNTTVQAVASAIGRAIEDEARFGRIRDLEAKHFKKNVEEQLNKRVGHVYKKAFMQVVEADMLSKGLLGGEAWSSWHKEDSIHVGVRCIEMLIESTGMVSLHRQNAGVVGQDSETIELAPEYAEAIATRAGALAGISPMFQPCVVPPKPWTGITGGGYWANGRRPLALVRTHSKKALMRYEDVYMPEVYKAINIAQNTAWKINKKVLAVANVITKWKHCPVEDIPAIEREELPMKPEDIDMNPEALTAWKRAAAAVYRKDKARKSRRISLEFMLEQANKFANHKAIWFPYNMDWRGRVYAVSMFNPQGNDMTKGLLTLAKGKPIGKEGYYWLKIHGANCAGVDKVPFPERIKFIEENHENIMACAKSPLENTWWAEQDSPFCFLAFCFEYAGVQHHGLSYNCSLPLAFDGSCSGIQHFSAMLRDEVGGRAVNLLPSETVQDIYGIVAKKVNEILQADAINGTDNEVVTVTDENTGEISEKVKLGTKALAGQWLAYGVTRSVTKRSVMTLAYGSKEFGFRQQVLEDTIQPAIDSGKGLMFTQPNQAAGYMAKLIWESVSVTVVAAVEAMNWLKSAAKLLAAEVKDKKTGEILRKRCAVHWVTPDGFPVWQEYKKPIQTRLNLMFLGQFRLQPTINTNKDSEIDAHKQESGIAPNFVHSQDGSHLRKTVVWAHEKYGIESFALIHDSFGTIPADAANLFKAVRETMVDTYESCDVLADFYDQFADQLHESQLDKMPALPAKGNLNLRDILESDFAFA

Compound	Capping rate (T7 RNA polymerase) [%]	Increase relative to 5227 (capping rate) (T7 RNA polymerase) [%]	Decapping rate (%) of DCP2 enzyme (DCP2 enzyme) [%]	Decrease relative to N-7113 (decapping rate) (DCP2 enzyme) [%]	Multiple of total radiation intensity relative to m6A (BALB/C mice; 6 h)	Total radiation intensity (BALB/C mice; [1])	Multiple of total radiation intensity relative to m6A (BALB/C mice; 12 h)	Total radiation intensity (BALB/C mice; [2])	Multiple of total radiation intensity relative to m6A (BALB/C mice; 24 h)	Total radiation intensity (BALB/C mice; [3])	Multiple of total radiation intensity relative to m6A (BALB/C mice; 48 h)	Total radiation intensity (BALB/C mice; [4])	Multiple of total radiation intensity relative to m6A (BALB/C mice; 96 h)	Total radiation intensity (BALB/C mice; [5])	Total radiation intensity (BALB/C mice; [6])	Total radiation intensity (BALB/C mice; at 12 hours)	Total radiation intensity, times that of N-7113 (BALB/C mice; at 12 hours) [times]	Total radiation intensity, times that of YK-CAP-101 (BALB/C mice; at 12 hours) [times]	Total radiation intensity (BALB/C mice; at 48 hours)	Total radiation intensity, times that of N-7113 (BALB/C mice; at 48 hours) [times]	other results
CO[C@@H]1[C@H](OP(=O)(O)OC[C@H]2O[C@@H](n3cnc4c(=O)[nH]c(N)nc43)[C@H](O)[C@@H]2O)[C@@H](COP(=O)(O)OP(=O)(O)OP(=O)(O)OC[C@H]2O[C@@H]([n+]3cn(C)c4c(=O)[nH]c(N)nc43)[C@H](O)[C@@H]2C(C)NC(C)=O)O[C@H]1n1cnc2c(N)ncnc21 (some centres unmarked) [YK-CAP-108]	95.8	33.2	16.3	27.5	2.7	6.42 ×108 p/s	2.8	6.03 ×108 p/s	2.6	1.70 ×108 p/s	2.0	1.04 ×108 p/s	1.3	0.19 ×108 p/s	0.02 ×108 p/s						
COC[C@@H]1[C@H](OP(=O)(O)OC[C@H]2O[C@@H](n3cnc4c(=O)[nH]c(N)nc43)[C@H](O)[C@@H]2O)[C@@H](COP(=O)(O)OP(=O)(O)OP(=O)(O)OC[C@H]2O[C@@H]([n+]3cn(C)c4c(=O)[nH]c(N)nc43)[C@H](O)[C@@H]2O)O[C@H]1n1cnc2c(N)ncnc21 [YK-CAP-113]	95.2	32.4	15.3	28.5	2.6	6.07 ×108 p/s	3.6	7.63 ×108 p/s	3.1	2.02 ×108 p/s	2.5	1.29 ×108 p/s	1.2	0.31 ×108 p/s	0.04 ×108 p/s						
CO[C@@H]1[C@H](OP(=O)(O)OC[C@H]2O[C@@H](n3cnc4c(=O)[nH]c(N)nc43)[C@H](O)[C@@H]2O)[C@@H](COP(=O)(O)OP(=O)(O)OP(=O)(O)OC[C@H]2O[C@@H]([n+]3cn(C)c4c(=O)[nH]c(N)nc43)[C@H](O)[C@@H]2C(F)F)O[C@H]1n1cnc2c(N)ncnc21 [YK-CAP-110]	97.4	35.5	10.2	33.6	4.1	9.52 ×108 p/s	5.0	10.55 ×108 p/s	4.6	3.04 ×108 p/s	4.4	2.30 ×108 p/s	1.0	0.27 ×108 p/s	0.04 ×108 p/s	10.55 ×10^8 p/s	2.4	11.0	2.30 ×10^8 p/s	4.7	Decapping rate lower than that of HN3002 (DCP2 enzyme; relative to HN3002): 13.1%; Decapping rate lower than that of YK-CAP-101 (DCP2 enzyme; relative to YK-CAP-101): 22.2%; Decapping rate lower than that of YK-CAP-102 (DCP2 enzyme; relative to YK-CAP-102): 31.0%; Decapping rate lower than that of YK-CAP-103 (DCP2 enzyme; relative to YK-CAP-103): 26.3%; Decapping rate lower than that of YK-CAP-104 (DCP2 enzyme; relative to YK-CAP-104): 35.9%; Decapping rate lower than that of YK-CAP-105 (DCP2 enzyme; relative to YK-CAP-105): 23.7%; Decapping rate lower than that of compound 14 (DCP2 enzyme; relative to compound 14): 16.6%; Decapping rate lower than that of m6A (DCP2 enzyme; relative to m6A): 23.6%; Total radiation intensity, times that of YK-CAP-101 (BALB/C mice; at 48 hours): 12.1 times
CCN(CC)C(=O)[C@H]1[C@@H](O)[C@H]([n+]2cn(C)c3c(=O)[nH]c(N)nc32)O[C@@H]1COP(=O)(O)OP(=O)(O)OP(=O)(O)OC[C@H]1O[C@@H](n2cnc3c(N)ncnc32)[C@H](OC)[C@@H]1OP(=O)(O)OC[C@H]1O[C@@H](n2cnc3c(=O)[nH]c(N)nc32)[C@H](O)[C@@H]1O [YK-CAP-111]	98.1	36.4	11.5	32.3	3.7	8.61 ×108 p/s	4.4	9.34 ×108 p/s	4.2	2.75 ×108 p/s	3.8	1.95 ×108 p/s	1.1	0.27 ×108 p/s	0.03 ×108 p/s	9.34 ×10^8 p/s	2.2	9.7	1.95 ×10^8 p/s	4.0	Capping rate, times that of YK-CAP-101 (T7 RNA polymerase; relative to YK-CAP-101): 2.3 times; Capping rate, times that of YK-CAP-102 (T7 RNA polymerase; relative to YK-CAP-102): 3.2 times; Capping rate, times that of YK-CAP-103 (T7 RNA polymerase; relative to YK-CAP-103): 1.4 times; Capping rate, times that of YK-CAP-104 (T7 RNA polymerase; relative to YK-CAP-104): 1.3 times; Capping rate, times that of YK-CAP-105 (T7 RNA polymerase; relative to YK-CAP-105): 1.4 times; Capping rate higher than that of compound 14 (T7 RNA polymerase; relative to compound 14): 25.3%; Total radiation intensity, times that of YK-CAP-101 (BALB/C mice; at 48 hours): 10.3 times
CO[C@@H]1[C@H](OP(=O)(O)OC[C@H]2O[C@@H](n3cnc4c(=O)[nH]c(N)nc43)[C@H](O)[C@@H]2O)[C@@H](COP(=O)(O)OP(=O)(O)OP(=O)(O)OC[C@H]2O[C@@H]([n+]3cn(C)c4c(=O)[nH]c(N)nc43)[C@H](O)[C@]2(C)NC(C)=O)O[C@H]1n1cnc2c(N)ncnc21 [YK-CAP-106]	95.3	32.5	17.3	26.5	2.5	5.88 ×108 p/s	3.2	6.85 ×108 p/s	2.7	1.76 ×108 p/s	1.0	0.53 ×108 p/s	2.6	0.11 ×108 p/s	0.03 ×108 p/s						
